Reference: patent US12662491B2 (Redona Therapeutics, Inc., priority 2020, dated 2026)

The compounds below were run against T1, Zcchc11 enzyme (Homo sapiens, UniProt Q5TAX3) (assay: TUTase assay (Zcchc11 assay, Lin28a-dependent polyuridylation of pre-let-7)). Settings: Lin28a-dependent Zcchc11 (Z11) TUTase activity; read-out: Potency Lin28a-dep Z11 IC50.
T1 construct: made in house; host or cells: HEK293 cells (Zcchc11); E. coli Rosetta II (LIN28A)
T1 sequence (Q5TAX3 212-1420): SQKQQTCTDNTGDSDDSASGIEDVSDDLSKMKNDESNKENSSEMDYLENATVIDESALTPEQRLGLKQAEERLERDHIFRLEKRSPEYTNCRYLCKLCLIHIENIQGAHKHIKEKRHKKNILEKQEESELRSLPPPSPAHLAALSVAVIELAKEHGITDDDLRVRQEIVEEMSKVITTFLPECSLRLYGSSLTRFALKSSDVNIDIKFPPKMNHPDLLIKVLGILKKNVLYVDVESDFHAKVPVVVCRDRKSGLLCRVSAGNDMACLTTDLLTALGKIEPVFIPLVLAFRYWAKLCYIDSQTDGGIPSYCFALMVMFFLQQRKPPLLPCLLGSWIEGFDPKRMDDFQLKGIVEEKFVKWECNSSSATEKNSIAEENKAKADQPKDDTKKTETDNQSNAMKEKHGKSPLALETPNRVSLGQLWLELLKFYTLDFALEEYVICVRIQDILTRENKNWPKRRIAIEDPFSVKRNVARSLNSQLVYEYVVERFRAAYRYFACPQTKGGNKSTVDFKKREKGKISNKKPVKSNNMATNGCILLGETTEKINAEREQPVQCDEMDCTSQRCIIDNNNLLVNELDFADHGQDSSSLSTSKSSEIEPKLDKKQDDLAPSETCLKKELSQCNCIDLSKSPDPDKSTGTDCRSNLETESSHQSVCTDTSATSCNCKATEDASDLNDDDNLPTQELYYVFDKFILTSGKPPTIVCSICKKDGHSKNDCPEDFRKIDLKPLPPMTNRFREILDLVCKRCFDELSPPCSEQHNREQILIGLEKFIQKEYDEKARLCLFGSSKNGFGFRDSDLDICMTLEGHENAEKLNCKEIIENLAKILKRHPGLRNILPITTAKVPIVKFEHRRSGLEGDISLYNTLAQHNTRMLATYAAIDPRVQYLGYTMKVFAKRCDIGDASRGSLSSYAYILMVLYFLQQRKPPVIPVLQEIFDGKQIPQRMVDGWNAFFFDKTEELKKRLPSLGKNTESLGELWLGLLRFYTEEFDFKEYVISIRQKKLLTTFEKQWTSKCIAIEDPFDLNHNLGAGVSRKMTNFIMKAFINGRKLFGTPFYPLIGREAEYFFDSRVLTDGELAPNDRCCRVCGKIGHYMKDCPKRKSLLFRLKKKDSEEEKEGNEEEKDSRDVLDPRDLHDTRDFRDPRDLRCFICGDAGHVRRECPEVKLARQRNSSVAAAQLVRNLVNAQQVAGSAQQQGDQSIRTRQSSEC
Type: biochemical
How it was run: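 Readout: time-dependent quench of 5′-fluorescein pre-let-7 (2 nM) as 3′-rhodamine A20 probe anneals to poly(U) tails. Enzyme 0.2 nM Zcchc11 (res. 212-1420), LIN28A 10 nM, UTP 5 uM; pH 7.3 HEPES, 150 mM KCl, 5 mM MgCl2, RT. 4-parameter IC50; 100% = DMSO, 0% = no UTP.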
`O=C(O)c1cn(-c2ccccc2)c2c(F)c(N3CCC[C@H]3COc3ccccn3)c(F)cc2c1=O` [a, (S)-6,8-difluoro-4-oxo-1-phenyl-7-(2-((pyridin-2-yloxy)methyl)pyrrolidin-1-yl)-1,4-dihydro-quinoline-3-carboxylic acid] was tested, and the IC50 was 10000 to 50000 nM.
“rac-6- chloro-7- ((2R,3S)-2- (((3- chloropyridin- 2- yl)oxy) methyl)-3- methyl- pyrrolidin-1- yl)-1-(6-(3- (dimethyl- amino) azetidin-1- yl)pyridin- 3-yl)-4- oxo-1,4- dihydro- quinoline-3- carboxylic acic [Compound 260]” was tested, and the IC50 was ≤ 1000 nM.

Same assay, conditions: Lin28a-dependent Zcchc11 (Z11) TUTase assay; read-out: Potency Lin28a-dep Z11 IC50
With `COc1ccnc(OC[C@H]2C[C@H]3C[C@H]3N2c2nc3c(cc2F)c(=O)c(C(=O)O)cn3-c2ccc(N3CC(N(C)C)C3)nc2)c1Cl` [Example 678, 7-((1R,3R,5R)-3-(((3-chloro-4-methoxypyridin-2-yl)oxy)methyl)-2-azabicyclo[3.1.0]hexan-2-yl)-1-(6-(3-(dimethylamino)azetidin-1-yl)pyridin-3-yl)-6-fluoro-4-oxo-1,4-dihydro-1,8-naphthyridine-3-carboxylic acid] the IC50 was ≤ 1000 nM.
In the case of `COc1ccnc(OC[C@H]2C[C@H]3C[C@H]3N2c2nc3c(cc2Cl)c(=O)c(C(=O)O)cn3-c2ccc(N3CC(N(C)C)C3)nc2)c1Cl` [Example 679, 6-chloro-7-((1R,3R,5R)-3-(((3-chloro-4-methoxypyridin-2-yl)oxy)methyl)-2-azabicyclo[3.1.0]hexan-2-yl)-1-(6-(3-(dimethylamino)azetidin-1-yl)pyridin-3-yl)-4-oxo-1,4-dihydro-1,8-naphthyridine-3-carboxylic acid], the IC50 is reported as ≤ 1000 nM.
In the case of `COc1ccnc(OC[C@H]2C[C@H]3C[C@H]3N2c2cc3c(cc2F)c(=O)c(C(=O)O)cn3-c2ccc(N3CC(N(C)C)C3)nc2)c1C` [Example 681, 1-(6-(3-(dimethylamino)azetidin-1-yl)pyridin-3-yl)-6-fluoro-7-((1R,3R,5R)-3-(((4-methoxy-3-methylpyridin-2-yl)oxy)methyl)-2-azabicyclo[3.1.0]hexan-2-yl)-4-oxo-1,4-dihydroquinoline-3-carboxylic acid], the IC50 is reported as ≤ 1000 nM.
With `COc1ccc(C)c(OC[C@H]2C[C@H]3C[C@H]3N2c2cc3c(cc2F)c(=O)c(C(=O)O)cn3-c2ccc(N3CC(N(C)C)C3)nc2)n1` [Example 682, 1-(6-(3-(dimethylamino)azetidin-1-yl)pyridin-3-yl)-6-fluoro-7-((1R,3R, 5R)-3-(((6-methoxy-3-methylpyridin-2-yl)oxy)methyl)-2-azabicyclo[3.1.0]hexan-2-yl)-4-oxo-1,4-dihydroquinoline-3-carboxylic acid] the IC50 was ≤ 1000 nM.
In the case of `COc1ccnc(OC[C@H]2C[C@H]3C[C@H]3N2c2cc3c(cc2Cl)c(=O)c(C(=O)O)cn3-c2ccc(N3CC(N(C)C)C3)nc2)c1C` [Example 683, 6-chloro-1-(6-(3-(dimethylamino)azetidin-1-yl)pyridin-3-yl)-7-((1R,3R,5R)-3-(((4-methoxy-3-methylpyridin-2-yl)oxy)methyl)-2-azabicyclo[3.1.0]hexan-2-yl)-4-oxo-1,4-dihydroquinoline-3-carboxylic acid], the IC50 is reported as ≤ 1000 nM.
For `COc1ccc(Cl)c(OC[C@H]2[C@@H](OC)CCN2c2cc3c(cc2Cl)c(=O)c(C(=O)O)cn3-c2ccc(N3CC(N(C)C)C3)nc2)n1` [Example 684, 6-chloro-7-((2S,3S)-2-(((3-chloro-6-methoxypyridin-2-yl)oxy)methyl)-3-methoxypyrrolidin-1-yl)-1-(6-(3-(dimethylamino)azetidin-1-yl)pyridin-3-yl)-4-oxo-1,4-dihydroquinoline-3-carboxylic acid], the IC50 was ≤ 1000 nM.
For `COc1ccnc(OC[C@H]2C[C@H]3C[C@H]3N2c2cc3c(cc2Cl)c(=O)c(C(=O)O)cn3-c2ccc(N3CC(N(C)C)C3)nc2)c1F` [Example 685, 6-chloro-1-(6-(3-(dimethylamino)azetidin-1-yl)pyridin-3-yl)-7-((1R,3R,5R)-3-(((3-fluoro-4-methoxypyridin-2-yl)oxy)methyl)-2-azabicyclo[3.1.0]hexan-2-yl)-4-oxo-1,4-dihydroquinoline-3-carboxylic acid], the IC50 was ≤ 1000 nM.
`COc1ccnc(OC[C@H]2C[C@H]3C[C@H]3N2c2cc3c(cc2F)c(=O)c(C(=O)O)cn3-c2ccc(N3CC(N(C)C)C3)nc2)c1F` [Example 686, 1-(6-(3-(dimethylamino)azetidin-1-yl)pyridin-3-yl)-6-fluoro-7-((1R,3R, 5R)-3-(((3-fluoro-4-methoxypyridin-2-yl)oxy)methyl)-2-azabicyclo[3.1.0]hexan-2-yl)-4-oxo-1,4-dihydroquinoline-3-carboxylic acid] was tested, and the IC50 was ≤ 1000 nM.
For `CN(C)C1CN(c2ccc(-n3cc(C(=O)O)c(=O)c4cc(C#N)c(N5CCC[C@]5(C)COc5ncccc5F)cc43)cn2)C1` [Example 687, (R)-6-cyano-1-(6-(3-(dimethylamino)azetidin-1-yl)pyridin-3-yl)-7-(2-(((3-fluoropyridin-2-yl)oxy)methyl)-2-methylpyrrolidin-1-yl)-4-oxo-1,4-dihydroquinoline-3-carboxylic acid], the IC50 was ≤ 1000 nM.
